The experiment addresses JAK3 enzyme (Homo sapiens (Human), UniProt P52333). In words: JAK Caliper Enzyme Assay at 4 μM or 1 mM ATP. The experiment is classed as biochemical. Here is the method:
JAK Caliper Enzyme Assay at […] or 1 mM ATP
Test article was solubilized in dimethyl sulfoxide (DMSO) to a stock concentration of 30 mM. An 11-point half log dilution series was created in DMSO with a top concentration of 600 μM. […] The compound plates were diluted 1 to 60 resulting in a top final assay compound concentration of 10 μM and a 2% DMSO concentration.
Test article and assay controls were added to a 384-well plate. Reaction mixtures contained 20 mM HEPES, pH 7.4, 10 mM magnesium chloride, 0.01% bovine serum albumin (BSA), 0.0005% Tween […] or 1 mM ATP and […] peptide substrate. […] The assays were initiated by the addition 1 nM JAK3 enzyme and were incubated at room temperature 75 minutes for JAK3. Enzyme concentrations and incubation times were optimized for each new enzyme preps and were modified slightly over time to ensure 20%-30% phosphorylation. The assays were stopped with a final concentration of 10 mM EDTA, 0.1% Coating Reagent and 100 mM HEPES, pH=7.4. The assay plates were placed on a Caliper Life Science Lab Chip 3000 (LC3000) instrument, and each well was sampled using appropriate separation conditions to measure the unphosphorylated and phosphorylated peptide.

[1] abbreviates: read-out: JAK3 (4 μM ATP) IC50, 4 μM ATP.
Where [2] appears, read: read-out: JAK3 (1 mM ATP) IC50, 1 mM ATP.

Read-outs that look alike come from different tables or passages of the source. Bounds are passed on as bounds.

Chain of JAK3 enzyme (P52333 whole entry, species assumed): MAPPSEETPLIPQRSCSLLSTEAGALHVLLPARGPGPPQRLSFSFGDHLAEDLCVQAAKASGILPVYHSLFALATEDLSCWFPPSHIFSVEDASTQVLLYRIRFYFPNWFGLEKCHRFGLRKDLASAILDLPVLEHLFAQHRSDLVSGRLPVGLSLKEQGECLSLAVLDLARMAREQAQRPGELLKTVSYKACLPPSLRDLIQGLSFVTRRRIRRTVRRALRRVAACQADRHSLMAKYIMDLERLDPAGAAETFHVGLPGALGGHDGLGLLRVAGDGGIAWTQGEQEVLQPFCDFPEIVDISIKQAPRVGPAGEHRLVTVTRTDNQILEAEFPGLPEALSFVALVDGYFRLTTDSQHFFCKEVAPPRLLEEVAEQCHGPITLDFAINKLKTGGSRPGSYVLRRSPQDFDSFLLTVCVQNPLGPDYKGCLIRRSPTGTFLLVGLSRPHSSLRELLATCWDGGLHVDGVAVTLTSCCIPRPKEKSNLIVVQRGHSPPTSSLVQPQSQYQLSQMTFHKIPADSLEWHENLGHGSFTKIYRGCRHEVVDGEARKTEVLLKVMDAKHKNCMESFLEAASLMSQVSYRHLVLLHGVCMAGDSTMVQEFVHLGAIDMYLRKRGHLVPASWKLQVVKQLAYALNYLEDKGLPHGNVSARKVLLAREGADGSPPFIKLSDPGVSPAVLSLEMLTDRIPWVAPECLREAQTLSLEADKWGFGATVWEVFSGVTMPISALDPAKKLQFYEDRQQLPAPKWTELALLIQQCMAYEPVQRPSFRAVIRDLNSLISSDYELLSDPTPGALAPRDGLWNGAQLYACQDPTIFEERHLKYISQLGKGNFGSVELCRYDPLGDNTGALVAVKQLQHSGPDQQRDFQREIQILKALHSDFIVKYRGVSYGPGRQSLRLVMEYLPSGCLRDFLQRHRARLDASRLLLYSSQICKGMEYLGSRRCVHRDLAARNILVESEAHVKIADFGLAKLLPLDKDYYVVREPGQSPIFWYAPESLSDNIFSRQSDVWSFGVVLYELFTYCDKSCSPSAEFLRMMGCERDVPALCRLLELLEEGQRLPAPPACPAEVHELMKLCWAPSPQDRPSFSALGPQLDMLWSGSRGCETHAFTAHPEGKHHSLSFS

`C=CC(=O)N1CC[C@@H](C)[C@@H](N(C)c2ncnc3[nH]ccc23)C1` [Example 130, 1-{(3R,4R)-4-Methyl-3-[methyl(7H-pyrrolo[2,3-d]pyrimidin-4-yl)amino]piperidin-1-yl}prop-2-en-1-one]: the IC50 – broadly, the midpoint of a concentration-inhibition curve – under setting [1] is 0.0752 µM.

Take `C=CC(=O)N1CCC(Nc2cnc3[nH]cc(C(=O)NCC(C)(F)F)c3n2)CC1` [Example 282, 2-[(1-acryloylpiperidin-4-yl)amino]-N-(2,2-difluoropropyl)-5H-pyrrolo[2,3-b]pyrazine-7-carboxamide]: the half-maximal inhibitory concentration (IC50) by setting is: under setting [1], 0.0002 µM; under setting [2], 0.0129 µM.

With `C=CC(=O)N1CCC(Nc2cnc3[nH]cc(C(=O)NCC4(O)CCC4)c3n2)CC1` [Example 231, 2-[(1-acryloylpiperidin-4-yl)amino]-N-[(1-hydroxycyclobutyl)methyl]-5H-pyrrolo[2,3-b]pyrazine-7-carboxamide], the IC50 reads like this: under setting [1], 0.0006 µM; under setting [2], 0.0526 µM. For `C/C=C/C(=O)N1CCC[C@@H](Nc2ncnc3[nH]cc(C(=O)N4CCCC4)c23)C1` [Example 147, (2E)-1-[(3R)-3-{[5-(pyrrolidin-1-ylcarbonyl)-7H-pyrrolo[2,3-d]pyrimidin-4-yl]amino}pipendin-1-yl]but-2-en-1-one], under setting [1], the IC50 was more than 10 µM. For `COC(=O)C/C=C/C(=O)N1CCC[C@@H](Nc2ncnc3[nH]ccc23)C1` [Example 97, methyl (3E)-5-oxo-5-[(3R)-3-(7H-pyrrolo[2,3-d]pyrimidin-4-ylamino)piperidin-1-yl]pent-3-enoate], the 50% inhibitory concentration (IC50) by setting is: under setting [1], 0.904 µM; under setting [2], more than 10 µM. In the same order, the values of `C=CC(=O)N1CCC(Nc2cnc3[nH]cc(C(=O)NCC(C)CC(F)(F)F)c3n2)CC1` (stereo not drawn) [Example 253, 2-[(1-acryloylpiperidin-4-yl)amino]-N-(4,4,4-trifluoro-2-methylbutyl)-5H-pyrrolo[2,3-b]pyrazine-7-carboxamide] are 0.0002 µM and 0.0069 µM. Take `C=CC(=O)N1CCC[C@@H](Nc2ncnc3[nH]cc(C(=O)N(C)C)c23)C1` [Example 142, 4-{[(3R)-1-acryloylpiperidin-3-yl]amino}-N,N-dimethyl-7H-pyrrolo[2,3-d]pyrimidine-5-carboxamide]: the 50% inhibitory concentration (IC50) under setting [1] came to 0.225 µM. Regarding `C#Cc1c[nH]c2ncnc(N3CC[C@H]4CCN(C(=O)C=C)C[C@H]43)c12` [Example 48, 1-[(3aS,7aS)-1-(5-ethynyl-7H-pyrrolo[2,3-d]pyrimidin-4-yl)octahydro-6H-pyrrolo[2,3-c]pyridin-6-yl]prop-2-en-1-one], the concentration for half-maximal inhibition (IC50) turned out to be 0.0008 µM under setting [1] and 0.101 µM under setting [2]. Consider `C=CC(=O)N1CC[C@@H](Nc2cnc3[nH]cc(C(=O)NC(C)C)c3n2)[C@H](O)C1` [Example 196, 2-{[(3R,4R)-1-acryloyl-3-hydroxypiperidin-4-yl]amino}-N-(propan-2-yl)-5H-pyrrolo[2,3-b]pyrazine-7-carboxamide], for which the half-inhibitory concentration (IC50) under setting [1] was found to be 0.0003 µM and the half-inhibitory concentration (IC50) under setting [2] was 0.0306 µM. For the compound `C=CC(=O)N1CCC[C@@H](Nc2ncnc3[nH]cc(C4CC4)c23)C1` [Example 37, 1-{(3R)-3-[(5-cyclopropyl-7H-pyrrolo[2,3-d]pyrimidin-4-yl)amino]piperidin-1-yl}prop-2-en-1-one], the IC50 under setting [1] came out at 0.295 µM.

Consider `C=CC(=O)N1CCC(Nc2cnc3[nH]cc(C(=O)N[C@H]4CC[C@@H](F)C4)c3n2)CC1` [Example 244, 2-[(1-acryloylpiperidin-4-yl)amino]-N-[(1S,3R)-3-fluorocyclopentyl]-5H-pyrrolo[2,3-b]pyrazine-7-carboxamide], for which the IC50 reads like this: under setting [1], 0.0002 µM; under setting [2], 0.0073 µM. In the same order, the values of `C=CC(=O)N1CCC[C@@H](Nc2ncnc3[nH]cc(C#N)c23)C1` [Example 45, 4-{[(3R)-1-acryloylpiperidin-3-yl]amino}-7H-pyrrolo[2,3-d]pyrimidine-5-carbonitrile] are 0.001 µM and 0.169 µM. Turning to `C/C=C/C(=O)N1CCC[C@@H](Nc2ncnc3[nH]ccc23)C1` [Example 95, (2E)-1-[(3R)-3-(7H-pyrrolo[2,3-d]pyrimidin-4-ylamino)piperidin-1-yl]but-2-en-1-one], the IC50 is 2.48 µM under setting [1] and more than 1 µM under setting [2]. With `N#CCCc1c[nH]c2ncnc(N[C@@H]3CCCN(C(=O)/C=C/CO)C3)c12` [Example 158, 3-[4-({(3R)-1-[(2E)-4-Hydroxybut-2-enoyl]piperidin-3-yl}amino)-7H-pyrrolo[2,3-d]pyrimidin-5-yl]propanenitrile], the half-maximal inhibitory concentration (IC50) under setting [1] was more than 10 µM.

Consider `O=C(/C=C/CF)N1CC[C@@H]2CCN(c3ncnc4[nH]ccc34)[C@@H]2C1` [Example 87, (2E)-4-fluoro-1-[(3aS,7aS)-1-(7H-pyrrolo[2,3-d]pyrimidin-4-yl)octahydro-6H-pyrrolo[2,3-c]pyrdin-6-yl]but-2-en-1-one], for which the 50% inhibitory concentration (IC50) is 0.139 µM under setting [1] and more than 10 µM under setting [2]. With `C=CC(=O)N1CCC[C@H](Nc2ncnc3[nH]ccc23)C1` [Example 104, 1-[(3S)-3-(7H-pyrrolo[2,3-d]pyrimidin-4-ylamino)piperidin-1-yl]prop-2-en-1-one], under setting [1], the IC50 came out at 0.0645 µM.

As to `C=CC(=O)N1CCC[C@@H](Nc2ncnc3[nH]ccc23)C1` [Example 12, (R)-1-(3-((7H-Pyrrolo[2,3-d]pyrimidin-4-yl)amino)piperidin-1-yl)prop-2-en-1-one], the IC50 is, setting by setting: under setting [1], 0.0007 µM; under setting [2], 0.0568 µM. Regarding `C=C(C)C(=O)N1CCC[C@@H](Nc2ncnc3[nH]cc(CCO)c23)C1` [Example 152, 1-[(3R)-3-{[5-(2-Hydroxyethyl)-7H-pyrrolo[2,3-d]pyrimidin-4-yl]amino}piperidin-1-yl]-2-methylprop-2-en-1-one], the half-inhibitory concentration (IC50) under setting [1] came to 4.24 µM. With `C=CC(=O)N1CC2COCC(C1)N2c1cnc2[nH]cc(C(=O)NC(C)C)c2n1` [Example 324, 2-(7-acryloyl-3-oxa-7,9-diazabicyclo[3.3.1]non-9-yl)-N-(propan-2-yl)-5H-pyrrolo[2,3-b]pyrazine-7-carboxamide], the IC50 runs as follows: under setting [1], 0.0375 µM; under setting [2], 3.1 µM. Consider `C=CC(=O)N1CC2(C1)CN(c1cnc3[nH]cc(C(=O)NC(C)C)c3n1)C2` [Example 310, 2-(6-acryloyl-2,6-diazaspiro[3.3]hept-2-yl)-N-(propan-2-yl)-5H-pyrrolo[2,3-b]pyrazine-7-carboxamide], for which the IC50 under setting [1] is 0.117 µM and the half-maximal inhibitory concentration (IC50) under setting [2] was more than 10 µM. Take `COCCc1c[nH]c2ncnc(N[C@@H]3CCCN(C(=O)/C=C/CN(C)C)C3)c12` [Example 108, (2E)-4-(dimethylamino)-1-[(3R)-3-{[5-(2-methoxyethyl)-7H-pyrrolo[2,3-d]pyrimidin-4-yl]amino}pipendin-1-yl]but-2-en-1-one]: the half-inhibitory concentration (IC50) is, setting by setting: under setting [1], 0.528 µM; under setting [2], more than 10 µM. For `C=CC(=O)N1CCC(Nc2cnc3[nH]cc(C(=O)N(C)C(C)C)c3n2)CC1` [Example 279, 2-[(1-acryloylpiperidin-4-yl)amino]-N-methyl-N-(propan-2-yl)-5H-pyrrolo[2,3-b]pyrazine-7-carboxamide], in that order: 0.0097 µM and 0.592 µM. For `C=CC(=O)N1CCN(c2cnc3[nH]cc(C(=O)NC(C)C)c3n2)C[C@H]1CC` [Example 311, 2-[(3R)-4-acryloyl-3-ethylpiperazin-1-yl]-N-(propan-2-yl)-5H-pyrrolo[2,3-b]pyrazine-7-carboxamide], in that order: 0.0012 µM and 0.2 µM.

With `C=CC(=O)N1CC[C@@H](Nc2cnc3[nH]cc(C(=O)NC(C)C)c3n2)[C@H](OC)C1` [Example 305, 2-{[(3R,4R)-1-acryloyl-3-methoxypiperidin-4-yl]amino}-N-(propan-2-yl)-5H-pyrrolo[2,3-b]pyrazine-7-carboxamide], the IC50 by setting is: under setting [1], 0.0008 µM; under setting [2], 0.065 µM. Regarding `C=CC(=O)N1CC[C@@H](F)[C@@H](Nc2ncnc3[nH]ccc23)C1` [Example 54, 1-((3S,4R)-3-((7H-Pyrrolo[2,3-d]pyrimidin-4-yl)amino)-4-fluoropiperidin-1-yl)prop-2-en-1-one], the concentration for half-maximal inhibition (IC50) worked out at 0.0017 µM under setting [1] and 0.192 µM under setting [2]. On to `C=CC(=O)N1C[C@@H](F)C[C@@H](Nc2ncnc3[nH]ccc23)C1` [Example 15, 1-((3R,5S)-3-((7H-Pyrrolo[2,3-d]pyrimidin-4-yl)amino)-5-fluoropiperidin-1-yl)prop-2-en-1-one], for which the concentration for half-maximal inhibition (IC50) turned out to be 0.0009 µM under setting [1] and 0.0827 µM under setting [2]. For `C=CC(=O)N1CCC(Nc2cnc3[nH]cc(C(=O)NCC(C)C)c3n2)CC1` [Example 272, 2-[(1-acryloylpiperidin-4-yl)amino]-N-(2-methylpropyl)-5H-pyrrolo[2,3-b]pyrazine-7-carboxamide], in that order: 0.0002 µM and 0.0088 µM. For `C=C(C(=O)N1CC[C@@H]2CCN(c3ncnc4[nH]ccc34)[C@@H]2C1)C(F)(F)F` [Example 41, 1-((3aS,7aS)-1-(7H-Pyrrolo[2,3-d]pyrimidin-4-yl)hexahydro-1H-pyrrolo[2,3-c]pyridin-6 (2H)-yl)-2-(trifluoromethyl)prop-2-en-1-one], in that order: 0.001 µM and 0.0925 µM.

Consider `C=CC(=O)N1CCC(Oc2cnc3[nH]cc(-c4ccc(C#N)nc4)c3n2)CC1` [Example 216, 5-{2-[(1-acryloylpiperidin-4-yl)oxy]-5H-pyrrolo[2,3-b]pyrazin-7-yl}pyridine-2-carbonitrile], for which the IC50 by setting is: under setting [1], 0.0125 µM; under setting [2], 1.03 µM.

The values above are taken from patent US20250134869A1, “Pyrrolo[2,3-d]pyrimidinyl, Pyrrolo[2,3-b]pyrazinyl and Pyrrolo[2,3-d]pyridinyl Acryla-mides” (Pfizer Inc, priority 2021, published 2025).
